Reference: a melting point compilation (Tetko et al.)

Structure (SMILES) | melting point [°C]
OCC(CO)(CBr)CBr | 113
O=c1ccn(C2CC(O)C(CO)O2)c(=O)[nH]1 (configuration not stated) | 166
CN1CCOc2cc(C=O)ccc21 | 70 to 71
COC(=O)c1ccc(C)c(C)c1 | 36 to 38
COC(=O)c1cc(Cl)ccc1NC(C)=O | 130
Cc1cc(C)c(N=C=S)c(C)c1 | 63 to 64
Oc1ccccc1Cc1ccccc1 | 52
COC1=CC2C3Cc4ccc(OC)c(O)c4C2(CCN3C)CC1=O (configuration not stated) | 162
CCOC(=O)C1=NC2Sc3sc(C(=O)OCC)cc3C(c3ccccc3)C2=C1N (configuration not stated) | 133
O=Cc1ccccc1OCc1ccccc1Cl | 84 to 86
N#CC1=C(N)Oc2c(c(C(F)(F)F)nn2-c2ccccc2)C1c1ccc(F)cc1 (configuration not stated) | 202
CC(=O)Nc1ccc(C)cc1C | 129
CCOc1nc2ccccc2c(=O)n1Cc1cccnc1 | 67 to 70
ON=C1CCCSC1 | 103 to 104
CC1(C)C=[N+]([O-])C(C)(C)C1 | 53 to 59
COc1ccc(C(O)(c2ccccc2OC)c2ccc(OC)cc2OC)c(OC)c1 | 137
O=C(CBr)c1cc(-c2ccccc2)no1 | 109 to 112
O=C1CCC(=O)C1 | 152
CCCOc1ccc(O)cc1 | 56.5
C=C1C(=O)C23C4CC5C(C)(C)CCC(O)C5(C(OC)O4)C2C(O)CC1C3O (configuration not stated) | 261
C=C(C)C(=O)Cl | -60
Nc1ccc(C(=O)NCCC(=O)O)cc1 | 152
C=CCC1(C(C)CCC)C(=O)NC(=S)NC1=O (configuration not stated) | 132
Nc1ccccc1C=Cc1cc(/C=C/c2ccccc2)c(N)cc1N | 146
Cc1cc(O)c([N+](=O)[O-])c(=O)[nH]1 | 293 to 296
N#CC(c1ccc(Cl)nn1)c1c(Cl)cccc1Cl (configuration not stated) | 124 to 131

Structure (SMILES) | melting point [°C]
CC[C@@]1(O)CC[C@]2(C)[C@H]3CC[C@]4(C)C(O)CC[C@H]4[C@@H]3CC[C@@]2(C)C1 (some centres not stated) | 168 to 169
CCCCCCCNCCCCCCC | 31.5
COc1ccc2c(c1)CC2C#N (configuration not stated) | 48 to 56
COc1ccccc1-c1ccc(/C=C2/C=C(CC(C)C)OC2=O)o1 | 89
N#Cc1ccc2c(c1)[N+]([O-])=C(c1cccc(C3=[N+]([O-])c4cc(C#N)ccc4C3=O)c1)C2=O | 270 to 320
O=C(Oc1ccccc1)c1cccc(C(=O)Oc2ccccc2)c1 | 136 to 139
CN(C)c1ccc(-c2ccc(N(C)C)cc2)cc1 | 194
CC=Cc1cccc(OC)c1O | 81
COC(=O)CSc1cc(C(F)(F)F)nc2ccccc12 | 96 to 98
COC1C=CC23c4cc5c(cc4COC2(O)CN(C)C3C1)OCO5 (configuration not stated) | 210
N#Cc1c(C(F)(F)F)cc(-c2ccccc2)nc1S | 181
CC(CCC(=O)O)C1CCC2C3C(=O)CC4CCCCC4(C)C3CCC12C (configuration not stated) | 145
CN(C)c1ccc(C=C/C(=N\Nc2ccccc2)c2ccccc2)cc1 | 127 to 128
Cc1ccc(Sc2ncccc2C(=O)Cl)cc1 | 102 to 104
O=C1C=C(c2ccccc2)CC1 | -23
CC(=O)c1c(C)c([N+](=O)[O-])c(C(C)(C)C)c([N+](=O)[O-])c1C | 136
Cc1cc(Br)cc(C)c1N=C=O | 61
COc1ccc(C(=O)CC(=O)c2ccc(C(C)(C)C)cc2)cc1 | 83.5
O=C(c1ccc2ccccc2c1)c1noc(-c2ccc(Cl)cc2)c1S(=O)(=O)c1ccccc1 | 165
Brc1cccc2cnccc12 | 82
N#CCC(=O)c1cccc(C(F)(F)F)c1 | 61
CNC(=O)Oc1cc(C)cc(C)c1 | 99
Cc1cc(C(=O)N2CCN(c3ccccc3)CC2)no1 | 101 to 103
NC(=S)Nc1ccccc1F | 143 to 145
Clc1cccc(Cl)c1I | 64 to 67
Cc1ccc(OCCBr)cc1 | 37 to 38

Structure (SMILES) | melting point [°C]
Clc1cccc2c1Oc1ccccc1O2 | 104
O=c1cccccc1 | -7
COc1ccc(C(=O)O)c(OC)c1 | 109
O=C1c2ccccc2C(=O)N1CCOCCO | 64
Cc1ccc(C(O)(c2ccc(C)cc2)C2(C)CCC(C(=O)O)C(C)(C)O2)cc1 (configuration not stated) | 152
Cn1ccc(-c2ccc(N=C=O)cc2)n1 | 67 to 70
O=c1[nH]c2scc(-c3ccccc3)c2c(=O)n1-c1ccc(Cl)c(Cl)c1 | 274 to 276
CC(=O)N1C(=O)/C(=C(\C#Cc2ccccc2)C(=O)c2ccccc2)c2ccccc21 | 189
O=S(=O)(CS(=O)(=O)c1ccccc1)c1ccccc1 | 117 to 123
ClCC(Cl)C(Cl)=C(Cl)C(Cl)CCl (configuration not stated) | 58.5
COc1cc(C(=O)c2ccc(Cl)cc2)c([N+](=O)[O-])cc1OC | 142
COC(=O)c1ccc(S(=O)(=O)NC(C)(C)C)n1C | 104 to 105
NS(=O)(=O)c1cc(F)ccc1F | 141
CC(C)(O)C#CC(C)(C)O | 95
Cn1ccnc1C(=O)O | 104 to 106
CC(=O)C1CCC2C3CCC4CC(N)CCC4(C)C3CCC12C (configuration not stated) | 126
Cc1cc(S(N)(=O)=O)ccc1Br | 151
O=[N+]([O-])c1cnccc1O | 271 to 273
O=C(c1ccc(Br)cc1)c1noc(-c2ccc(Cl)cc2)c1S(=O)(=O)c1ccccc1 | 145
O=Cc1c(O)cc(Cl)cc1Cl | 52
Cc1ccc(Sc2ccc(C=CC(=O)O)cc2[N+](=O)[O-])cc1 | 217 to 218
c1ccc2c(c1)NC1(CCCCC1)O2 | 243
O=C1C(=Cc2ccc(Cl)cc2)SC(=S)N1CNc1ccc([N+](=O)[O-])cc1 | 216 to 217
CC(=O)Nc1cc(Cl)c(Cl)cc1[N+](=O)[O-] | 126 to 128
O=Cc1cccc(C(F)(F)F)c1O | 57
CNC(=O)Oc1ccccc1C(C)C | 94

Structure (SMILES) | melting point [°C]
CCC(COCCOc1c(I)cc(I)c(NC(C)=O)c1I)C(=O)O (configuration not stated) | 130
COC(=O)c1cocc1C(=O)OC | 42 to 47
c1cncc(Cn2cccc2)c1 | 59 to 64
Nc1ccc(-c2ccc(Cl)cc2)cc1 | 134
Cc1nc(-c2ccccc2)ncc1C=O | 101 to 103
COc1ccc(/N=N/c2c(N)nn3c(C)cc(=O)[nH]c23)cc1 | 276
COc1cc(CC#N)c(OC)cc1CC#N | 198 to 200
O=C(Cl)/C=C/c1ccc(/C=C/C(=O)Cl)cc1 | 171
CC(C)(CCl)C(=O)O | 41.5
Clc1cc(Cl)c2oc3c(Cl)c(Cl)c(Cl)cc3c2c1 | 219
c1n[nH]c2c1CCCC2 | 82
Clc1noc2ccccc12 | 31
O=S(=O)(c1ccc(Cl)cc1)c1cc(Cl)c(Cl)cc1Cl | 147
CSc1ccc(Oc2ccc(C(F)(F)F)cc2[N+](=O)[O-])cc1 | 41 to 43
Fc1ccc(NC(=S)Nc2cc(Cl)cc(Cl)c2)cc1 | 164
CCOC(=O)c1cc2cc([N+](=O)[O-])ccc2o1 | 150 to 155
N#Cc1ccc(CCc2ccc(C#N)cc2)cc1 | 198 to 203
COc1cccc(CO)c1O | 59 to 63
CC1CCCCN1CCCOC(=O)c1ccc(Cl)c(Cl)c1 (configuration not stated) | 25
Nc1c(C=O)ccc2c1C(=O)c1ccccc1C2=O | 228 to 234
CSc1nc(N)nc(C2CC2)n1 | 157 to 159
O=C(O)c1ccc(F)cc1Br | 169 to 173
CC(C)(C)c1ncc(C(=O)Nc2cc(C(F)(F)F)cc(C(F)(F)F)c2)nc1Cl | 99
COc1cc(C=CC=O)ccc1O | 84
OCN(CO)c1nc(N(CO)CO)nc(N(CO)CO)n1 | 137
COc1cccnc1Cl | 47

Structure (SMILES) | melting point [°C]
Ic1cccc(CN2CCOCC2)c1 | 32 to 34
NC(=S)Cc1ccc(Cl)cc1 | 129 to 131
O=[N+]([O-])c1ccc(-c2nnc3n2NC(c2ccccc2)S3)cc1 (configuration not stated) | 220
Cn1c(=O)c(C2=NNC(=O)C2=Cc2cccc([N+](=O)[O-])c2)c(O)c2ccccc21 | 261
N#Cc1ccc(S(=O)(=O)Cl)c(Cl)c1 | 103
Cn1ncc(Br)c1C=O | 70
O=C(O)C1c2ccccc2Oc2ccccc21 | 217
O=C=Nc1cc(Cl)ccc1Cl | 30
CC(C)(C)OC(=O)NC1(C(=O)O)CCCC1 | 133
O=S(=O)(O)CC(O)CN(CCO)CCO (configuration not stated) | 189 to 192
O=C(O)c1csc(N2CCOCC2)n1 | 175 to 177
Cc1c(S(=O)(=O)c2ccc(Cl)cc2)csc1C(=O)NN | 165 to 168
CC(=O)N(C(C)=O)c1ccc(N=Nc2ccccc2C)cc1C | 75
Cn1c(=O)c(C2=NNC(=O)C2=NNc2c(Br)cc([N+](=O)[O-])cc2[N+](=O)[O-])c(O)c2ccccc21 | 192
CC(C)(C)OC(=O)NCc1ccc(Br)s1 | 51 to 54
COc1cccc(NC(N)=S)c1 | 160
CN=C(NC)NCc1ccccc1 | 196
COc1ccc(C2C3=C(CCCC3)OC3=C2CCCC3)cc1 | 104
COC(=O)c1cncc(C)c1 | 44
OCc1nccn1Cc1ccccc1 | 94 to 97
CCC1(c2ccc(N)cc2)CCC(=O)NC1=O (configuration not stated) | 150
CO/C(C)=C(\C#N)c1ccccc1[N+](=O)[O-] | 66 to 69
CN(C)C(=O)COC1CCN(C(=O)OC(C)(C)C)CC1 | 58
